This is an account of results in ChEMBL document CHEMBL3259730, “Synthesis and biological evaluation of 2,3-diaryl isoquinolinone derivatives as anti-breast cancer agents targeting ERα and VEGFR-2” (Bioorg Med Chem Lett, 2014).

Experiment [1] has as its system MCF7. In words: Antiproliferative activity against human MCF7 cells after 48 hrs by MTT assay. The experiment is classed as functional, cell-based. Particulars: MCF7, 48 h.
For experiment [2], the target named is Vascular endothelial growth factor receptor 2 (Homo sapiens) (UniProt P35968). Particulars: at 0.1 mg/mL.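 Further: VEGFR-2 inhibition read out by HTRF after 1 h, with the receptor's origin stated as unknown.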
Chain of Vascular endothelial growth factor receptor 2 (Homo sapiens) (P35968 whole entry): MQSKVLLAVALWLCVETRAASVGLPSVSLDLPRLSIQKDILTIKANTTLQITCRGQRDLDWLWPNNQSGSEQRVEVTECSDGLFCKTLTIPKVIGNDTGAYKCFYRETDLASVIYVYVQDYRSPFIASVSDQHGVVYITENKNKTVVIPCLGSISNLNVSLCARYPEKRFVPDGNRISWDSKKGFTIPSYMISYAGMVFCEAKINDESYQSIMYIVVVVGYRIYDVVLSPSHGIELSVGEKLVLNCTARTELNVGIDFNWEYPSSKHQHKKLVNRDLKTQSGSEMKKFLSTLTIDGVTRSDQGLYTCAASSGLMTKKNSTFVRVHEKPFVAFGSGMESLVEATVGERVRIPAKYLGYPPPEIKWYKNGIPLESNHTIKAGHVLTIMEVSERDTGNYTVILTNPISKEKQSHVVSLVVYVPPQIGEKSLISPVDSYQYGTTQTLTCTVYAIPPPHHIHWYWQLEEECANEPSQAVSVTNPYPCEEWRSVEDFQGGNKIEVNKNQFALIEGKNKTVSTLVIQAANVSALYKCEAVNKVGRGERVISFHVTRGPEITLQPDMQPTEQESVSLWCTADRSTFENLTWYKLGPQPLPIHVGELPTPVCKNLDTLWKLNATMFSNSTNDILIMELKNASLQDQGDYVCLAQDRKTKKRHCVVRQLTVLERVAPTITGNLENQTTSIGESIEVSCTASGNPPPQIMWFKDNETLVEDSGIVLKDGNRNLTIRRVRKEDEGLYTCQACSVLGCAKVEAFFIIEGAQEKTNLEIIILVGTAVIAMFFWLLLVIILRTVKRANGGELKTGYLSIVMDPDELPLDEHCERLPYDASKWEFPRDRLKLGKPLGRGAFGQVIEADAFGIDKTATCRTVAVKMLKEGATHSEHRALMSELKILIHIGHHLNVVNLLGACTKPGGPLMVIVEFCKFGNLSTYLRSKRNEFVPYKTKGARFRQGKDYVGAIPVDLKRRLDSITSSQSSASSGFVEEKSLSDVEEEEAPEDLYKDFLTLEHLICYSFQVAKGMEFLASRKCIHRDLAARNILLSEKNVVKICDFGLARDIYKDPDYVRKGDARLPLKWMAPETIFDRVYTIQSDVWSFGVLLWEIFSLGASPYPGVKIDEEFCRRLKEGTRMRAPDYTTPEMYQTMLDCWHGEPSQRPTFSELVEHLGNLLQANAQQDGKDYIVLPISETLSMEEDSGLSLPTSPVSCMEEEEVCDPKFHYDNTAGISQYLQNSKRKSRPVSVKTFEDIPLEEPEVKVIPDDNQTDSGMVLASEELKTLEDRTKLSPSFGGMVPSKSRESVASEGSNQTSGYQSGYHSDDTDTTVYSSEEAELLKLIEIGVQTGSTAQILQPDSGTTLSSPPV
Description: Inhibition of VEGFR-2 (unknown origin) at 0.1 mg/ml after 1 hr by HTRF assay
Experiment [3] has as its system Chorioallantoic membrane. In words: Antiangiogenic activity in Chicken chorioallantoic membrane after 72 hrs relative to control. In kind it is functional, cell membranes. The settings on record: Gallus gallus.

One may read the IC50 as the concentration that gives 50% inhibition. For orientation: inhibition means the change of the read-out against control, counted positive when it falls. Take `CCN(CC)CCOc1ccc(-n2c(-c3ccc(OC)cc3)cc3ccc(OC)cc3c2=O)cc1`: inhibition in experiment [1] was half-maximal at 383 µM (IC50). Moreover, in experiment [2], the inhibition was found to be 92.5%.

The compound `O=c1c2cc(O)ccc2cc(-c2ccc(O)cc2)n1-c1ccc(OCCN2CCCC2)cc1` came in with an IC50 in experiment [1] of 11.8 µM. In addition, the inhibition in experiment [2] was 49.9%.

In the case of `COc1ccc(-c2cc3ccc(OC)cc3c(=O)n2-c2ccc(OCCCN3CCCC3)cc2)cc1`, the IC50 in experiment [1] is 479 µM. Besides, in experiment [2], the inhibition worked out at 98.5%.

In experiment [1], `CC/C(=C(\c1ccccc1)c1ccc(OCCN(C)C)cc1)c1ccccc1` [TAMOXIFEN] returned an IC50 of 1.89 µM.

On to `COc1ccc(-c2cc3ccc(OC)cc3c(=O)n2-c2ccc(OCCN3CCN(C)CC3)cc2)cc1`, for which, in experiment [1], the IC50 stood at 429 µM. Moreover, in experiment [2], the inhibition worked out at 79.4%.

`COc1ccc(-c2cc3ccc(OC)cc3c(=O)n2-c2ccc(OCCN(C)C)cc2)cc1`: the IC50 in experiment [1] is more than 1000 µM. The inhibition in experiment [2] worked out at 66.1%.

`COc1ccc(-c2cc3ccc(OC)cc3c(=O)n2-c2ccc(OCCN3CCCCC3)cc2)cc1` gave an IC50 in experiment [1] of 322 µM. The inhibition in experiment [2] came to 65.3%.

In experiment [1], `O=c1c2cc(O)ccc2cc(-c2ccc(O)cc2)n1-c1ccc(OCCCN2CCCC2)cc1` returned a half-inhibitory concentration (IC50) of 12.7 µM. For the same compound, the inhibition in experiment [2] is 48.3%.

On to `COc1ccc(-c2cc3ccc(OC)cc3c(=O)n2-c2ccc(OCCN3CCOCC3)cc2)cc1`, for which the IC50 in experiment [1] is more than 1000 µM. The inhibition in experiment [2] stood at 51.2%.

Regarding `O=c1c2cc(O)ccc2cc(-c2ccc(O)cc2)n1-c1ccc(OCCCN2CCCCC2)cc1`, the inhibition entry was “Dose-dependent effect” in experiment [3] and 100% in experiment [2]. In addition, it took 2.73 µM to reach half-maximal inhibition in experiment [1] (IC50).

As for `O=c1c2cc(O)ccc2cc(-c2ccc(O)cc2)n1-c1ccc(OCCN2CCCCC2)cc1`, the IC50 in experiment [1] turned out to be 3.63 µM. The inhibition in experiment [2] stood at 84.8%.

As for `CN1CCN(CCOc2ccc(-n3c(-c4ccc(O)cc4)cc4ccc(O)cc4c3=O)cc2)CC1`, the inhibition entry is “Dose-dependent effect” in experiment [3] and 103% in experiment [2]. The compound also showed an IC50 in experiment [1] of 9.45 µM.

In the case of `COc1ccc(-c2cc3ccc(OC)cc3c(=O)n2-c2ccc(OCCCN3CCCCC3)cc2)cc1`, the IC50 in experiment [1] is more than 1000 µM. Besides, the inhibition in experiment [2] came to 72.8%.

In experiment [1], `COc1ccc(-c2cc3ccc(OC)cc3c(=O)n2-c2ccc(OCCN3CCCC3)cc2)cc1` registered an IC50 of 863 µM. In addition, the inhibition in experiment [2] turned out to be 83.8%.

In experiment [1], `CN(C)CCOc1ccc(-n2c(-c3ccc(O)cc3)cc3ccc(O)cc3c2=O)cc1` showed an IC50 of 18.9 µM. For the same compound, the inhibition in experiment [2] is 79.4%.
